Experimental data reported in patent US20120189758A1, “Flavour Enhancement” (priority 2009, published 2012).

Key:
[1] = Taste comparison of model savoury base, GABA solution and base plus GABA (Example 2); details: 4 experienced tasters; base: 5000 ppm table salt, 150 ppm MSG, 75 ppm IMP/GMP; GABA 10 ppm
Method: A model savoury solution containing 5000 ppm table salt, 150 ppm MSG and 75 ppm IMP/GMP was used as a base.
Another solution was prepared containing 10 ppm GABA.
In a third solution, 10 ppm GABA was added to the base solution.
The solutions were compared by a small group of experienced tasters (3 male, 1 female).
The base solution was described as salty and umami. The GABA solution was tasteless. All members of the group preferred the third solution over the first one and judged to be noticeably different from the base.

[2] = GABA concentration series in reference savoury solution, tasted for umami enhancement (Example 4); details: 5000 ppm table salt, 15 ppm MSG, 75 ppm IMP/GMP
Method: A reference solution containing 5000 ppm table salt, 15 ppm MSG and 75 ppm IMP/GMP was prepared. To different parts of this solution 5, 10, 15, 20, and 25 ppm GABA was added. The solutions were tasted by a small group of experienced tasters (3 male, 1 female). […] 15 ppm of GABA was the flavoured sample in comparison to the target.

For NCCCC(=O)O [GABA, γ-amino butyric acid], the taste description [1] was “tasteless” and the “GABA concentration of the flavoured (favoured) sample in comparison to the target” value [2] was 15 ppm.
